The values that follow come from US9718859B2, “Glycogen synthase kinase-3 inhibitors” (Ramot at Tel-Aviv University Ltd., priority 2013, dated 2017).

Entries after “also recorded” stand apart in the source; their conditions may differ. Square brackets hold non-standard residues; d marks the D form. Ends that are not written are not given here. Peptide text beside a SMILES is read from it. * marks the point of attachment. Myristoyl = CCCCCCCCCCCCCC(=O)*; pS = N[C@@H](COP(=O)(O)O)C(=O)O

The target of assay [1] is GSK-3 (Homo sapiens, UniProt P49841). Particulars: Licht-Murava et al. 2011; cited from earlier work.
GSK-3, sequence (P49841 whole entry): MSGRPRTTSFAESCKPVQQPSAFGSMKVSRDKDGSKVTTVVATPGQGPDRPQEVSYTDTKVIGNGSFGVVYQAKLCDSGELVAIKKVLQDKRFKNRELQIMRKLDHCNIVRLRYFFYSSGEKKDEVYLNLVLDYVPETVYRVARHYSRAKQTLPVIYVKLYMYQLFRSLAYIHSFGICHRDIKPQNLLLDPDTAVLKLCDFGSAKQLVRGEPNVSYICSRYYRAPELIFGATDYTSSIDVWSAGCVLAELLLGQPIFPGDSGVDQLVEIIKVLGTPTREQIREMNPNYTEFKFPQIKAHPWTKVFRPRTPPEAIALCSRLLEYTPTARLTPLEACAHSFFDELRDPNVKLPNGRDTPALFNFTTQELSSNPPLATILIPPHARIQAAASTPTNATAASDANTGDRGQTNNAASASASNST
In assay [2] the test system is 5XFAD mice. Put plainly: Contextual fear conditioning test in 5XFAD mice. Type of assay: in vivo, mouse. The conditions noted are these: intranasal, 60 μg/dose every other day for 120 days, FIG. 8A. The protocol:
5XFAD mice were purchased from Jackson laboratory and maintained at an animal house. The 5XFAD mice were randomly assigned to two groups (6 animals each). Treatment started at the age of 2 months, by administering, intranassally, L807-mts (60 μg) (5 μl solution in each nostril) every other day for 120 days.
A contextual fear conditioning test (FCT) was thereafter conducted as described in Saura et al. (2005) J. Neurosci. 25(29), 6755-6764. Briefly, mice were subjected to an unconditioned electric stimulus (US footshock; 1 s/1 mA) in a training pre-session. Twenty-four hours later, FCT was measured by scoring freezing behavior (the absence of all but respiratory movement) for 180 seconds using a FreezeFrame automated scoring system (Coulbourn Instruments). All experiments were in compliance with protocols approved by the TAU animal care committee.
Mice (two-month old) were treated intranasally with L807-mts (60 μg/dose) for 120 days. At the end of the experiment mice were subjected to the contextual fear conditioning test (FCT), a behavioral test widely used to evaluate associative learning and memory (see, Saura et al. (2005) supra).

Assay [3] concerns Aβ loads. Put plainly: Congo red staining of Aβ loads in brain sections of 5XFAD mice. Type of assay: in vivo, mouse. Particulars: intranasal 60 μg/dose for 120 days, FIG. 8B. The protocol: 5XFAD mice were purchased from Jackson laboratory and maintained at an animal house. The 5XFAD mice were randomly assigned to two groups (6 animals each). Treatment started at the age of 2 months, by administering, intranassally, L807-mts (60 μg) (5 μl solution in each nostril) every other day for 120 days. Saline-perfused brains of the tested mice were rapidly excised and frozen in N2. Brains were divided into the two hemispheres: the left hemisphere was taken for immunohistology and the right hemisphere for immunoblot analysis. Coronal brains sections (14 μm) were cut by cryostat at -20° C. Slices at Bregma -1.58 mm were fixed (using 4% PFA) and stained with Congo red dye (Sigma-Aldrich) or with an antigen-retrieval method with anti-Aβ 6E10 antibody (SIG-39300) and visualized by fluorescence microscopy. Quantification of Aβ depositions was done for the whole hippocampus area in a blinded fashion using Imaging Research software from the NIH in an unbiased stereological approach. Mice were scarified and coronal brain sections were stained with congo red dye and Aβ loads were visualized by fluorescence microscopy.

Assay [4] addresses T1, GSK-3β F93A mutant (Homo sapiens, UniProt P49841, F93A).
T1 construct: made in house, partially purified on a DE-52 minicolumn
Particulars: Licht-Murava et al. 2011; cited from earlier work.

The target of assay [5] is T1, GSK-3β F93A mutant. Put plainly: In vitro kinase assay: inhibition of the GSK-3β F93A mutant, pIRS-1 as substrate. Format: biochemical. The conditions noted are these: FIG. 6. As for the experimental part:
(§1) GSK-3β F93A mutant (in which Phe93 was replaced by alanine) was prepared as described in WO 2012/101599.
(§2) In assays conducted with GSK-3 mutant, the GSK-3β proteins (WT or mutant) were incubated with the indicated substrate in a reaction mixture (50 mM Tris-HCl, pH 7.3, 10 mM magnesium acetate, and 0.01% β-mercaptoethanol) together with 100 μM ^32P[γ-ATP] (0.5 μCi/assay) for 15 minutes. Reactions were stopped by spotting on p81 paper (Whatman) washed with phosphoric acid, and counted for radioactivity as previously described [Ilouz et al. (2006) supra]. In assays from cells overexpressing GSK-3 proteins, GSK-3 proteins were partially purified by DE-52 minicolumn and subjected to in vitro kinase assays as described. The activity of the endogenous GSK-3 that was determined in cells transfected with the pCMV4 vector was subtracted from the activity values obtained for WT and mutants.
In vitro kinase assays conducted for evaluating the inhibition activity of L807 and pL807 of the F93A mutant were also conducted, using pIRS-1 as a substrate.

Assay [6] addresses T1, GSK-3β F93A mutant. Put plainly: In vitro kinase assay: phosphorylation of the peptide as a substrate by the GSK-3β F93A mutant. Format: biochemical. The conditions noted are these: FIG. 5. As for the experimental part:
as §1, §2
Thus, L807 and the substrate pHSF-1 were both tested in in vitro kinase assays as described hereinabove, for the ability of GSK-3β (WT) and its F93A mutant to phosphorylate these peptides.

The target in assay [7] is T2, GSK-3β (WT) (Homo sapiens, UniProt P49841).
T2 construct: made in house
T2 sequence (P49841 whole entry): as above
Put plainly: In vitro kinase assay: phosphorylation of the peptide as a substrate by GSK-3β (WT), 32P-γ-ATP. The conditions noted are these: WT GSK-3β, FIG. 3 and FIG. 5. Type of assay: biochemical. The protocol:
(§3) GSK-3β (WT) was incubated with pIRS-1, RREGGMSRPAS(p)VDG (SEQ ID NO:55), as an exemplary substrate, in a reaction mixture (50 mM Tris-HCl, pH 7.3, 10 mM magnesium acetate, and 0.01% β-mercaptoethanol) together with 100 μM 32P[γ-ATP] (0.5 μCi/assay) for 15 minutes. Reactions were stopped by spotting on p81 paper (Whatman), washed with phosphoric acid, and counted for radioactivity as previously described [Ilouz et al. (2006) supra].
as §2
Thus, in vitro kinase assays as described hereinabove were performed in the presence of pIRS-1 substrate or L807 and phosphorylation was determined. […]

Assay [8] concerns the target T2, GSK-3β (WT). Put plainly: In vitro kinase assay: inhibition of GSK-3β (WT), pIRS-1 as substrate. Type of assay: biochemical. Particulars: FIG. 4. The protocol: Bacterially expressed Purified GSK-3β Wild-Type (WT) was prepared as previously described (Eldar-Finkelman 1996 PNAS).
as §3
The ability of the novel peptides described in Example 1 to inhibit GSK-3β was determined by in vitro kinase assays as described hereinabove. The results are presented in FIGS. 2A-B. Substrate phosphorylation obtained in reaction with no inhibitor was defined as 100% (Con), and the results presented are means of two independent experiments each performed in duplicate±SEM.

T1 sequence (P49841 whole entry F93A): as the sequence (P49841 whole entry) above, with F93A counted along it

As for `C[C@H](NC(=O)[C@H](CCC(=O)O)NC(=O)[C@@H](N)CCCCN)C(=O)N1CCC[C@H]1C(=O)N1CCC[C@H]1C(=O)N[C@@H](C)C(=O)N1CCC[C@H]1C(=O)N1CCC[C@H]1C(=O)N[C@@H](CCC(N)=O)C(=O)N[C@@H](COP(=O)(O)O)C(=O)N1CCC[C@H]1C(=O)O` [L803, KEAPPAPPQS(p)P] (H-KEAPPAPPQ[pS]P-OH; N-terminus and C-terminus assumed), in assay [1], the “Interaction with F93 of GSK-3, binding mode as previously reported” value is “contacts GSK-3 residue F93”.
Regarding `CCCCCCCCCCCCCC(=O)NCC(=O)N[C@@H](CCCCN)C(=O)N[C@@H](CCC(=O)O)C(=O)N[C@@H](C)C(=O)N1CCC[C@H]1C(=O)N1CCC[C@H]1C(=O)N[C@@H](CO)C(=O)N1CCC[C@H]1C(=O)N1CCC[C@H]1C(=O)N[C@@H](CCC(N)=O)C(=O)N[C@@H](COP(=O)(O)O)C(=O)N1CCC[C@H]1C(=O)O` [L807-mts, myristic acid-GKEAPPSPPQS(p)P] (Myristoyl-GKEAPPSPPQ[pS]P-OH; C-terminus assumed), the “Freezing behavior, performance relative to wild-type (WT) mice” value in assay [2] is listed as “up to 81%±14%”. The “Amount and mean sizes of Aβ loads” value in assay [3] is on record as “largely reduced”.
For “RREGGMSRPAS(p)VDG (RREGGMSRPA[pS]VDG) [pIRS-1, GSK-3 substrate peptide from the insulin receptor substrate-1]”, in assay [4], the “Peptide phosphorylation by F93A mutant (literature)” value is listed as “not phosphorylated”.
For the compound `C[C@H](NC(=O)[C@H](CCC(=O)O)NC(=O)[C@@H](N)CCCCN)C(=O)N1CCC[C@H]1C(=O)N1CCC[C@H]1C(=O)N[C@@H](CO)C(=O)N1CCC[C@H]1C(=O)N1CCC[C@H]1C(=O)N[C@@H](CCC(N)=O)C(=O)N[C@@H](COP(=O)(O)O)C(=O)N1CCC[C@H]1C(=O)O` [L807, KEAPPSPPQS(p)P] (H-KEAPPSPPQ[pS]P-OH; N-terminus and C-terminus assumed), in assay [5], the “Inhibition of the F93A mutant” value is given as “no inhibition”. For the same compound, the “Peptide phosphorylation by F93A mutant” value in assay [6] is on record as “phosphorylated”. For the same compound, the “Peptide phosphorylation by GSK-3β (substrate or not)” value in assay [7] was “is a substrate of GSK-3; also recorded: phosphorylated”.
Turning to “KEAPPS(p)PPQS(p)P (KEAPP[pS]PPQ[pS]P) [pL807, double phosphorylated L807]”, the “Inhibition of GSK-3” value in assay [8] is given as “does not inhibit GSK-3”. Further, the “Peptide phosphorylation by GSK-3β (substrate or not)” value in assay [7] is given as “is not a substrate of GSK-3”.
